Source: patent US11738031B2, “Compositions and methods for preventing or treating muscle conditions” (The Board of Trustees of the Leland Stanford Junior …, priority 2017, dated 2023)
Entries after “also recorded” stand apart in the source; their conditions may differ.

Tests used:
MuSCs = assay: EdU incorporation proliferation assay; type: cell-based, mouse; details: PGE2 10 ng/ml for 24 h, EdU 1 hr
Description: Proliferation assays: To assay proliferation, we used three different assays (hemocytometer, VisionBlue, and EdU). For each, we seeded MuSCs on flat hydrogels (hemocytometer and VisionBlue) or collagen-coated plates (EdU assay) at a density of 500 cells per cm^2 surface area. For hemocytometer cell number count, we collected cells at indicated timepoints by incubation with 0.5% trypsin in PBS for 5 min at 37° C. and quantified them using a hemocytometer at least 3 times. Additionally, we used the VisionBlue Quick Cell Viability Fluorometric Assay Kit (BioVision, catalog #K303) as a readout for cell growth in culture. Briefly, we incubated MuSCs with 10% VisionBlue in culture medium for 3 h, and measured fluorescence intensity on a fluorescence plate reader (Infinite M1000 PRO, Tecan) at Ex=530-570 nm, Em=590-620 nm. […] We quantified EdU positive cells using the MetaMorph Image Analysis software (Molecular Devices). Data analyses were blinded, where researchers performing cell scoring were unaware of the treatment condition given to sample groups analyzed.
To assay proliferation, we used three different assays (hemocytometer, VisionBlue, and EdU). […] For hemocytometer cell number count, we collected cells at indicated timepoints by incubation with 0.5% trypsin in PBS for 5 min at 37° C. and quantified them using a hemocytometer at least 3 times. […]

Nurr1 = Nurr1 expression in MuSCs (qRT-PCR, flow cytometry); type: cell-based, mouse; details: 24 hr PGE2 treatment in culture
Description: We analyzed NURR1 levels by flow cytometry using myogenic progenitors after a 24 hr treatment of vehicle (DMSO) or PGE2 (10 ng/ml), or from MuSCs transfected with shSCR or shNurr1 (see Knockdown assays section). We collected cells by incubation with 0.5% trypsin in PBS for 2 min at 37° C. We fixed the cells using 1.6% paraformaldehyde in PBS and then permeabilized them in ice-cold methanol. We then blocked them in staining buffer (0.5% BSA in PBS) for 30 min at room temperature and stained them with a Mouse monoclonal anti-Nurr1 (Abcam, catalog #ab41917, 1:75) primary antibody or anti-mouse IgG control (Jackson ImmunoResearch Laboratories). […] We analyzed the cells on a FACS LSR II cytometer using FACSDiva software (BD Biosciences) in the Stanford Shared FACS Facility, purchased using an NIH S10 Shared Instrument Grant (S10RR027431-01).
We isolated RNA from MuSCs using the RNeasy Micro Kit (Qiagen). […] To quantify relative transcript levels, we used 2^ΔΔCt to compare treated and untreated samples and expressed the results relative to Gapdh. […] TaqMan Assays (Applied Biosystems) were used to quantify Pax7, Myogenin, Nurr1, Ptger3 and Ptger4 in samples according to the manufacturer instructions with the TaqMan Universal PCR Master Mix reagent kit (Applied Biosystems). […]

Q: What does the source list for `CCCCC[C@H](O)/C=C/[C@H]1[C@H](O)CC(=O)[C@@H]1C/C=C\CCCC(=O)O` [PGE2, prostaglandin E2]?
A: cell division assayed by EdU incorporation (MuSCs): increased cell division; also recorded: increase in cell division; Nurr1 mRNA and protein expression (Nurr1): increased Nurr1 mRNA and protein expression
